Laboratory results taken from PubChem BioAssay (NCI).
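Method: 48-hour compound exposure of cells in 96-well plates, five concentrations, linear interpolation of endpoints. At the TGI there is no net growth.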

What was measured:
Assay in all cases: DTP human tumour cell line panel, 48 h
[1] = tested on: SF-268 CNS
[2] = tested on: SF-295 CNS
[3] = tested on: M14 melanoma
[4] = tested on: NCI-H226 lung
[5] = tested on: NCI-H522 lung
[6] = tested on: BT-549 breast
[7] = tested on: HS 578T breast
[8] = tested on: HL-60(TB) leukemia
[9] = tested on: TK-10 renal
[10] = tested on: UACC-62 melanoma
[11] = tested on: DU-145 prostate
[12] = tested on: MDA-MB-435
[13] = tested on: KM12 colon
[14] = tested on: OVCAR-3 ovarian
[15] = tested on: SNB-19 CNS
[16] = tested on: SK-MEL-2 melanoma
[17] = tested on: RXF 393 renal
[18] = tested on: SF-539 CNS
[19] = tested on: CAKI-1 renal
[20] = tested on: MOLT-4 leukemia
[21] = tested on: CCRF-CEM leukemia
[22] = tested on: HT29 colon
[23] = tested on: T-47D breast
[24] = tested on: OVCAR-8 ovarian
[25] = tested on: PC-3 prostate
[26] = tested on: A549 NSCLC
[27] = tested on: A498 renal
[28] = tested on: SW-620 colon
[29] = tested on: UACC-257 melanoma
[30] = tested on: NCI-H23 lung
[31] = tested on: HCT-15 colon
[32] = tested on: HOP-92 NSCLC
[33] = tested on: SK-OV-3 ovarian
[34] = tested on: MCF7 breast
[35] = tested on: HCC-2998 colon
[36] = tested on: NCI-H460 lung
[37] = tested on: UO-31 renal
[38] = tested on: U251 CNS
[39] = tested on: MDA-MB-231 breast
[40] = tested on: OVCAR-4 ovarian
[41] = tested on: EKVX NSCLC
[42] = tested on: SN12C renal
[43] = tested on: COLO 205 colon
[44] = tested on: OVCAR-5 ovarian
[45] = tested on: ACHN renal
[46] = tested on: IGROV1 ovarian
[47] = tested on: NCI/ADR-RES ovarian
[48] = tested on: HOP-62 NSCLC
[49] = tested on: K-562 leukemia
[50] = tested on: SK-MEL-5 melanoma
[51] = tested on: SK-MEL-28 melanoma
[52] = tested on: 786-0 renal
[53] = tested on: SR leukemia
[54] = tested on: HCT-116 colon
[55] = tested on: MALME-3M melanoma
[56] = tested on: SNB-75 CNS

NNC(=O)c1c(SCc2ccccc2)nc2c3ccccc3ccn12
TGI [1]: > 100 µM
TGI [2]: > 100 µM
TGI [3]: 41.2 µM
TGI [4]: > 100 µM
TGI [5]: 37.3 µM
TGI [6]: 70.2 µM
TGI [7]: > 100 µM
TGI [8]: 29.4 µM
TGI [9]: > 100 µM
TGI [10]: 29.6 µM
TGI [11]: > 100 µM
TGI [12]: > 100 µM
TGI [13]: > 100 µM
TGI [14]: 16 µM
TGI [15]: > 100 µM
TGI [16]: > 100 µM
TGI [17]: 93.4 µM
TGI [18]: > 100 µM
TGI [19]: 87.9 µM
TGI [20]: 41.3 µM
TGI [21]: 22.1 µM
TGI [22]: 35.3 µM
TGI [23]: 72.1 µM
TGI [24]: > 100 µM
TGI [25]: > 100 µM
TGI [26]: 70.3 µM
TGI [27]: 46.6 µM
TGI [28]: > 100 µM
TGI [29]: > 100 µM
TGI [30]: 52.6 µM
TGI [31]: 41.2 µM
TGI [32]: 68.5 µM
TGI [33]: > 100 µM
TGI [34]: > 100 µM
TGI [35]: > 100 µM
TGI [36]: 28 µM
TGI [37]: 66.5 µM
TGI [38]: > 100 µM
TGI [39]: 87.9 µM
TGI [40]: 68.6 µM
TGI [41]: > 100 µM
TGI [42]: > 100 µM
TGI [43]: > 100 µM
TGI [44]: 54.8 µM
TGI [45]: > 100 µM
TGI [46]: 51.2 µM
TGI [47]: > 100 µM
TGI [48]: > 100 µM
TGI [49]: 57.9 µM
TGI [50]: 28.3 µM
TGI [51]: > 100 µM

Cc1cc(NC(=S)SCc2ccc(F)cc2)c([N+](=O)[O-])cc1C
TGI [1]: > 100 µM
TGI [2]: > 100 µM
TGI [3]: > 100 µM
TGI [52]: > 100 µM
TGI [4]: 38.7 µM
TGI [6]: 59.1 µM
TGI [7]: 46.6 µM
TGI [8]: 45.4 µM
TGI [9]: 65.4 µM
TGI [10]: 31.3 µM
TGI [11]: > 100 µM
TGI [12]: 73.2 µM
TGI [13]: 44.6 µM
TGI [14]: 54.6 µM
TGI [15]: 77.1 µM
TGI [17]: 82.9 µM
TGI [18]: 53.2 µM
TGI [19]: > 100 µM
TGI [20]: 16.9 µM
TGI [22]: 34.6 µM
TGI [23]: > 100 µM
TGI [24]: 38.6 µM
TGI [25]: > 100 µM
TGI [26]: > 100 µM
TGI [53]: 43.9 µM
TGI [28]: > 100 µM
TGI [29]: 53.6 µM
TGI [30]: 99.4 µM
TGI [31]: 46.4 µM
TGI [32]: 68 µM
TGI [33]: > 100 µM
TGI [34]: > 100 µM
TGI [36]: > 100 µM
TGI [38]: 57.5 µM
TGI [39]: 34.6 µM
TGI [40]: > 100 µM
TGI [41]: 91.3 µM
TGI [54]: > 100 µM
TGI [42]: 48.4 µM
TGI [43]: 37.2 µM
TGI [44]: 54.7 µM
TGI [45]: > 100 µM
TGI [47]: 62.2 µM
TGI [48]: 68.1 µM
TGI [49]: > 100 µM
TGI [55]: 77.7 µM
TGI [50]: 26 µM
TGI [51]: > 100 µM
TGI [56]: > 100 µM
